ChEMBL document CHEMBL4715741, “Neuroprotective effect of synthetic chalcone derivatives as competitive dual inhibitors against μ-calpain and cathepsin B through the downregulation of tau phosphorylation and insoluble Aβ peptide formation” (Eur J Med Chem, 2016)
Calls of active or inactive are those of the source. The rule behind the calls is not given here. Square brackets hold non-standard residues; d marks the D form. Peptide text beside a SMILES is read from it. * marks the point of attachment. ξ: configuration not given here. ξF = NC(Cc1ccccc1)C(=O)O; Cbz = O=C(OCc1ccccc1)*; CH2F = FC*

What was measured:
[1] = biological target: T1, Cathepsin B (Homo sapiens, UniProt P07858); test: Inhibition of cathepsin B (unknown origin) using RR-AMC as substrate preincubated for 30 mins followed by substrate addition and further incubated for 30 mins under shaking condition by fluorescence assay
[2] = biological target: Procathepsin L (Homo sapiens, UniProt P07711); test: Inhibition of cathepsin L (unknown origin) using Z-FR-AMC as substrate preincubated for 30 mins followed by substrate addition and further incubated for 30 mins under shaking condition by fluorescence assay
[3] = biological target: T2, Calpain-1 catalytic subunit (Homo sapiens, UniProt P07384); test: Inhibition of human erythrocytes mu-calpain using Pep1 as substrate incubated for 30 mins under shaking condition in presence of CaCl2 by fluorescence assay; parameters: species or system Erythrocyte
T2 sequence (P07384 whole entry): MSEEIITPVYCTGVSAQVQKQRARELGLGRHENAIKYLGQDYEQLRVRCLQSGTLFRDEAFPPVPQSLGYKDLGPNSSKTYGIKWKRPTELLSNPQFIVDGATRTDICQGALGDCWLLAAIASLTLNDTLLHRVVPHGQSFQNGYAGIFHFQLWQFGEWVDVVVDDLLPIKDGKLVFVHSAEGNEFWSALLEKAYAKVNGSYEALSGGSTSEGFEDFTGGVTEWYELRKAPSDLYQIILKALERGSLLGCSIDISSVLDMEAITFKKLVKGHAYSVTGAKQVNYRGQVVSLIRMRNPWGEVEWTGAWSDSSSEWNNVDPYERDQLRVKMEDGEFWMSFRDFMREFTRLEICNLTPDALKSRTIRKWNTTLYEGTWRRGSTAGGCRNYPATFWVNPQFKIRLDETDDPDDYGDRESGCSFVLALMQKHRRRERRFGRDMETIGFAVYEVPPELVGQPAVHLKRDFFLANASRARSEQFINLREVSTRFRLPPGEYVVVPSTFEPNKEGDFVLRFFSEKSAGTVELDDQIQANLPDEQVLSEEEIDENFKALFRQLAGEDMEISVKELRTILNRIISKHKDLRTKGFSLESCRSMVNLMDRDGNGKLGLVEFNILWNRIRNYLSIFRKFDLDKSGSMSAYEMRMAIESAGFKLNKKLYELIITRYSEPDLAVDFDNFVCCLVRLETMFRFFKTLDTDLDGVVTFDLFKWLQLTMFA

[4] = test system: SH-SY5Y; test: Neuroprotective activity in human SH-SY5Y cells assessed as reduction in GOx-induced PARP cleavage at 20 uM pretreated with GOx for 4 hrs followed by compound treatment by Western blot analysis; format: functional, cell-based
[5] = biological target: T2, Calpain-1 catalytic subunit; test: Inhibition of human erythrocytes mu-calpain using Pep2 as substrate incubated for 30 mins under shaking condition in presence of CaCl2 by fluorescence assay; parameters: species or system Erythrocyte
[6] = biological target: T1, Cathepsin B; test: Inhibition of human liver cathepsin B using RR-AMC as substrate preincubated for 30 mins followed by substrate addition and further incubated for 30 mins under shaking condition by fluorescence assay; format: tissue-based
[7] = biological target: T1, Cathepsin B; test: Inhibition of cathepsin B in human SH-SY5Y cells using RR-AMC as substrate by fluorescence microplate reader assay; format: cell-based
[8] = biological target: T1, Cathepsin B; test: Competitive inhibition of cathepsin B (unknown origin) using varying level of RR-AMC as substrate by Lineweaver-Burk plot analysis
[9] = biological target: T3, Calpain-1 catalytic subunit (Homo sapiens) (UniProt P07384); test: Inhibition of mu-calpain in human SH-SY5Y cells assessed as reduction in tau phosphorylation by Western blot analysis; format: cell-based
T3 sequence (whole entry): T2 sequence (P07384 whole entry)

[10] = test system: SH-SY5Y; test: Neuroprotective activity in human SH-SY5Y cells assessed as reduction in GOx-induced caspase 3 cleavage pretreated with GOx for 4 hrs followed by compound treatment by Western blot analysis; format: functional, cell-based
[11] = biological target: T3, Calpain-1 catalytic subunit (Homo sapiens); test: Inhibition of mu-calpain in human SH-SY5Y cells assessed as reduction in GOx-induced MAPK phosphorylation pretreated with GOx for 4 hrs followed by compound treatment by Western blot analysis; format: cell-based
[12] = test system: SH-SY5Y; test: Neuroprotective activity in human SH-SY5Y cells assessed as reduction in GOx-induced PARP cleavage at 5 uM pretreated with GOx for 4 hrs followed by compound treatment by Western blot analysis; format: functional, cell-based
[13] = test system: SH-SY5Y; test: Inhibition of mu-calpain/cathepsin B in human SH-SY5Y cells assessed as reduction in GOx-induced BACE1 upregulation at 20 uM pretreated with GOx for 4 hrs followed by compound treatment by Western blot analysis; format: cell-based
[14] = biological target: T3, Calpain-1 catalytic subunit (Homo sapiens); test: Inhibition of mu-calpain (unknown origin) expressed in SH-SY5Y cells assessed as reduction in p35 cleavage at 20 uM using p35 as substrate measured after 210 mins by fluorescence microplate reader assay; format: cell-based
[15] = biological target: T3, Calpain-1 catalytic subunit (Homo sapiens); test: Inhibition of mu-calpain in human SH-SY5Y cells assessed as reduction in GOx-induced […] pretreated with GOx for 4 hrs followed by compound treatment by Western blot analysis; format: cell-based
[16] = biological target: T3, Calpain-1 catalytic subunit (Homo sapiens); test: Inhibition of mu-calpain (unknown origin) expressed in HEK293T cells assessed as reduction in p35 cleavage at 5 uM using p35 as substrate measured after 210 mins by fluorescence microplate reader assay; format: cell-based
[17] = biological target: T3, Calpain-1 catalytic subunit (Homo sapiens); test: (§1) Competitive inhibition of human erythrocytes mu-calpain using varying level of Pep2 as substrate by Lineweaver-Burk plot analysis; settings: Erythrocyte
[18] = biological target: T2, Calpain-1 catalytic subunit; test: as §1; parameters: species or system Erythrocyte
[19] = test system: SH-SY5Y; test: Reduction in GOx-induced amyloid beta(1 to 42) level in human SH-SY5Y cells pretreated with GOx for 4 hrs followed by compound treatment by sandwich ELISA; format: functional, cell-based

Procathepsin L, sequence (P07711 whole entry): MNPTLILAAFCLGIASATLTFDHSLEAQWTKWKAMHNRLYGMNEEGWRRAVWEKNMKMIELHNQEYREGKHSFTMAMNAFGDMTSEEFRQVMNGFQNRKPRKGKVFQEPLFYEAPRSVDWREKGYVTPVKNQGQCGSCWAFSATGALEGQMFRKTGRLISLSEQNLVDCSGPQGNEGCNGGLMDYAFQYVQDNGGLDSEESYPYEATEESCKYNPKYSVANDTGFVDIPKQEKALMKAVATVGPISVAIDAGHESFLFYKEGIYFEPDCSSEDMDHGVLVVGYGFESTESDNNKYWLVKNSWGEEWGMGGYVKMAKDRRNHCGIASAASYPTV

Row | Compound | IC50 [1] [µM] | IC50 [2] [µM] | IC50 [3] [µM] | also measured
1 | O=C(/C=C/c1ccc(O)c2ccccc12)c1ccco1 | > 50 | 33 | 40.9 | –
2 | COc1ccccc1/C=C/C=C/C(=O)c1cccnc1 | 33.3 | 48.4 | 19.1 | –
3 | CCOc1cc(O)ccc1C(=O)/C=C/C=C/c1ccccc1OC | 13.9 | 27 | 13 | –
4 | O=C(/C=C/c1ccc(O)c2ccccc12)c1cccs1 | > 50 | 35.4 | > 50 | –
5 | CC(C)[C@H](NC(=O)OCc1ccccc1)C(=O)NC(C=O)Cc1ccccc1 (stereo partly drawn) (Cbz-Val-[ξF]-aldehyde) | – | – | – | Activity [4]: Active
6 | COc1cc(O)ccc1C(=O)/C=C/c1ccc(O)cc1 | – | – | – | IC50 [5]: 16.9 µM
7 | COc1cc(/C=C/C(=O)c2ccco2)ccc1O | – | – | – | IC50 [6]: 20.6 µM; IC50 [5]: 15.4 µM
8 | CCCNC(=O)[C@H]1O[C@@H]1C(=O)N[C@H](C(=O)N1CCC[C@H]1C(=O)O)[C@@H](C)CC | – | – | > 100 | Activity [4]: Active
9 | COc1cc(O)ccc1C(=O)/C=C/c1ccc(O)c2ccccc12 | 15.6 | 15.6 | 23.8 | –
10 | COc1cc(/C=C/C=C/C(=O)c2ccc(O)cc2)ccc1O | 11.1 | 16 | 16.8 | IC50 [7]: 3.81 µM; Ki [8]: 4.74 µM; inhibition [8]: Dose-dependent effect; inhibition [9]: Active; Activity [10]: Active; inhibition [11]: Active; Activity [12]: Active; inhibition [13]: Active; inhibition [14]: Active; inhibition [15]: Active; inhibition [16]: Active; inhibition [17]: Dose-dependent effect; Ki [18]: 5.73 µM; Activity [19]: Active
11 | COc1ccc(O)cc1/C=C/C(=O)c1ccc(O)cc1 | – | – | – | IC50 [5]: 16.7 µM
12 | COc1ccc(/C=C/C(=O)c2ccc(O)cc2)c2ccccc12 | 14.5 | 25.8 | 10.2 | –
13 | O=C(N[C@@H](Cc1ccccc1)C(=O)N[C@@H](Cc1ccccc1)C(=O)CF)OCc1ccccc1 (Cbz-Phe-Phe-CH2F) | – | – | 0.397 | –
14 | O=C(/C=C/c1ccc(O)c2ccccc12)c1ccc(O)cc1 | 14.8 | 21.6 | 69.6 | –

More lines, main results first:

Row | IC50 [1] [µM] | IC50 [2] [µM] | IC50 [3] [µM] | Compound | also measured
15 | 14.4 | 2.41 | 62.3 | CCOC(=O)[C@H]1O[C@@H]1C(=O)N[C@@H](CC(C)C)C(=O)NCCC(C)C [ALOXISTATIN] | Activity [4]: Active
16 | 33.1 | 26.1 | 13.7 | COc1ccccc1/C=C/C=C/C(=O)c1ccc(O)cc1 | –
17 | > 100 | 0.072 | 0.297 | CCCC[C@@H](C=O)NC(=O)[C@H](CC(C)C)NC(=O)OCc1ccccc1 [CALPEPTIN] | –
18 | 37.8 | > 50 | 46.6 | COc1ccc(/C=C/C(=O)/C=C/c2ccc(O)cc2OC)cc1 | –
19 | 6.34 | 14.9 | 18.8 | O=C(/C=C/c1ccc(O)c2ccccc12)c1ccc(O)cc1O | IC50 [7]: 13 µM; Ki [8]: 10.6 µM; inhibition [8]: Dose-dependent effect; inhibition [9]: Active; Activity [10]: Active; inhibition [11]: Active; Activity [12]: Active; inhibition [13]: Active; inhibition [14]: Active; inhibition [15]: Active; inhibition [16]: Active; inhibition [17]: Dose-dependent effect; Ki [18]: 19.3 µM; Activity [19]: Active
